Experimental findings from patent US9527867B2, “Antibacterial biaromatic derivatives” (Actelion Pharmaceuticals Ltd., priority 2013, dated 2016) are described below.

In brackets after ≈: the same amount, converted by molar mass.

What all share (assay): Bacterial growth minimal inhibitory concentration (broth microdilution, CLSI M7-A7)
Holding throughout (assay type): cell-based

Experiment [1] concerns Staphylococcus aureus ATCC29213. The following applies: Staphylococcus aureus, ATCC29213, cation-adjusted Mueller-Hinton Broth, methicillin-sensitive and quinolone-sensitive strain, read-out: MIC for S. aureus ATCC29213. The method, then:
(§1) Minimal Inhibitory Concentrations (MICs; mg/L) were determined in cation-adjusted Mueller-Hinton Broth by a microdilution method following the description given in “Methods for Dilution Antimicrobial Susceptibility Tests for Bacteria that Grow Aerobically”, Approved standard, 7th ed., Clinical and Laboratory Standards Institute (CLSI) Document M7-A7, Wayne, Pa., USA (2006).
(§2) All Example compounds were tested against several Gram positive and Gram negative bacteria. […] Staphylococcus aureus A798, Enterococcus faecium A949 and Acinetobacter baumannii T6474 are multiply-resistant strains (in particular quinolone-resistant), while Moraxella catarrhalis A894 is a quinolone-sensitive strain and Staphylococcus aureus ATCC29213 is a methicillin-sensitive and quinolone-sensitive strain.

Experiment [2] deals with Staphylococcus aureus A798. The following applies: Staphylococcus aureus, A798, cation-adjusted Mueller-Hinton Broth, multiply-resistant strain (in particular quinolone-resistant), read-out: MIC for S. aureus A798. The protocol:
as §1, §2

The test system of experiment [3] is Moraxella catarrhalis A894. Particulars: Moraxella catarrhalis, A894, cation-adjusted Mueller-Hinton Broth, quinolone-sensitive strain. The protocol: as §1, §2
The test system of experiment [4] is Acinetobacter baumannii T6474. Particulars: Acinetobacter baumannii, T6474, cation-adjusted Mueller-Hinton Broth, multiply-resistant strain (in particular quinolone-resistant). The method, then: as §1, §2
The subject of experiment [5] is Enterococcus faecium A949. Particulars: Enterococcus faecium, A949, cation-adjusted Mueller-Hinton Broth, multiply-resistant strain (in particular quinolone-resistant), read-out: MIC for E. faecium A949. The protocol:
as §1, §2

In the case of `COc1ccnc(-c2cccc(CNCC[C@@H]3CN(c4ccc5c(c4)NC(=O)CS5)C(=O)O3)c2)n1` [Example 23, 6-((R)-5-{2-[3-(4-methoxy-pyrimidin-2-yl)-benzylamino]-ethyl}-2-oxo-oxazolidin-3-yl)-4H-benzo[1,4]thiazin-3-one], the MIC – broadly, the smallest concentration in the dilution series that meets the test's criterion for growth inhibition – is 0.063 µg/mL (≈ 0.128 µM) in experiment [1]; 0.063 µg/mL (≈ 0.128 µM) in experiment [2]; at most 0.016 µg/mL in experiment [3]; 0.25 µg/mL (≈ 0.509 µM) in experiment [4]; 1 µg/mL (≈ 2.03 µM) in experiment [5].

As for `O=C1COc2ccc(N3C[C@H](CCNCc4cccc(-c5cccc(OCC6CCC6)c5)c4)OC3=O)nc2N1` [Example 50, 6-((S)-5-{2-[(3′-cyclobutylmethoxy-biphenyl-3-ylmethyl)-amino]-ethyl}-2-oxo-oxazolidin-3-yl)-4H-pyrido[3,2-b][1,4]oxazin-3-one], the MIC was 4 µg/mL (≈ 7.57 µM) in experiment [1]; 2 µg/mL (≈ 3.78 µM) in experiment [2]; 0.5 µg/mL (≈ 0.946 µM) in experiment [3]; above 8 µg/mL in experiment [4]; 8 µg/mL (≈ 15.1 µM) in experiment [5].

For the molecule `N#Cc1cccnc1-c1cccc(CNCC[C@H]2CN(c3ccc4c(n3)NC(=O)CO4)C(=O)O2)c1` [Example 62, 2-[3-({2-[(S)-2-oxo-3-(3-oxo-3,4-dihydro-2H-pyrido[3,2-b][1,4]oxazin-6-yl)-oxazolidin-5-yl]-ethylamino}-methyl)-phenyl]-nicotinonitrile], the minimal inhibitory concentration (MIC) in experiment [1] was 1 µg/mL (≈ 2.13 µM); in experiment [2], 2 µg/mL (≈ 4.25 µM); in experiment [3] it was at most 0.063 µg/mL; in experiment [4], 1 µg/mL (≈ 2.13 µM); in experiment [5] it was 16 µg/mL (≈ 34 µM).

Regarding `O=C1COc2ccc(N3C[C@H](CCNCc4cccc(-c5cccc(N6CCC(O)C6)n5)c4)OC3=O)nc2N1` (mixture of isomers) [Example 57, 6-[(S)-5-(2-{3-[6-((RS)-3-hydroxy-pyrrolidin-1-yl)-pyridin-2-yl]-benzylamino}-ethyl)-2-oxo-oxazolidin-3-yl]-4H-pyrido[3,2-b][1,4]oxazin-3-one], the MIC in experiment [1] amounted to 2 µg/mL; in experiment [2] it was 1 µg/mL; in experiment [3] it was 0.25 µg/mL; in experiment [4], 2 µg/mL; in experiment [5], 8 µg/mL.

For the molecule `COc1cccc(-c2cccc(CNCC[C@@H]3CN(c4ccc5c(c4)NC(=O)CS5)C(=O)O3)c2)n1` [Example 15, 6-((R)-5-{2-[3-(6-methoxy-pyridin-2-yl)-benzylamino]-ethyl}-2-oxo-oxazolidin-3-yl)-4H-benzo[1,4]thiazin-3-one], the minimal inhibitory concentration (MIC) in experiment [1] is 0.063 µg/mL (≈ 0.128 µM); in experiment [2] it was 0.031 µg/mL (≈ 0.0632 µM); in experiment [3] it was at most 0.016 µg/mL; in experiment [4], 0.125 µg/mL (≈ 0.255 µM); in experiment [5], 0.5 µg/mL (≈ 1.02 µM).

Consider `COc1cccc(-c2cccc(CNCC[C@H]3CN(c4ccc5c(n4)NC(=O)CO5)C(=O)O3)c2)n1` [Example 41, 6-((S)-5-{2-[3-(6-methoxy-pyridin-2-yl)-benzylamino]-ethyl}-2-oxo-oxazolidin-3-yl)-4H-pyrido[3,2-b][1,4]oxazin-3-one], for which the minimal inhibitory concentration (MIC) in experiment [1] is 0.063 µg/mL (≈ 0.132 µM); in experiment [2] it was 0.063 µg/mL (≈ 0.132 µM); in experiment [3] it was at most 0.016 µg/mL; in experiment [4], 0.25 µg/mL (≈ 0.526 µM); in experiment [5] it was 1 µg/mL (≈ 2.1 µM).

Turning to `COc1cccc(-c2cccc(CNCCc3nn(-c4ccc5c(n4)NC(=O)CO5)c(=O)o3)c2)c1` [Example 107, 6-(5-{2-[(3′-methoxy-biphenyl-3-ylmethyl)-amino]-ethyl}-2-oxo-[1,3,4]oxadiazol-3-yl)-4H-pyrido[3,2-b][1,4]oxazin-3-one], the MIC in experiment [1] worked out at 4 µg/mL (≈ 8.45 µM); in experiment [2], 8 µg/mL (≈ 16.9 µM); in experiment [3], 0.063 µg/mL (≈ 0.133 µM); in experiment [4] it was 2 µg/mL (≈ 4.22 µM); in experiment [5], 8 µg/mL (≈ 16.9 µM).

For `COc1cc(-c2cccc(CNCC[C@@H]3CN(c4ccc5c(c4)NC(=O)CS5)C(=O)O3)c2)nc(OC)n1` [Example 26, 6-((R)-5-{2-[3-(2,6-dimethoxy-pyrimidin-4-yl)-benzylamino]-ethyl}-2-oxo-oxazolidin-3-yl)-4H-benzo[1,4]thiazin-3-one], the minimal inhibitory concentration (MIC) in experiment [1] was 0.5 µg/mL (≈ 0.959 µM); in experiment [2] it was 0.25 µg/mL (≈ 0.479 µM); in experiment [3] it was 0.063 µg/mL (≈ 0.121 µM); in experiment [4], 2 µg/mL (≈ 3.83 µM); in experiment [5] it was 4 µg/mL (≈ 7.67 µM).

Take `COc1cnnc(-c2ccnc(CNCC[C@H]3CN(c4ccc5c(n4)NC(=O)CO5)C(=O)O3)c2)c1` [Example 111, (S)-6-(5-(2-(((4-(5-methoxypyridazin-3-yl)pyridin-2-yl)methyl)amino)ethyl)-2-oxooxazolidin-3-yl)-2H-pyrido[3,2-b][1,4]oxazin-3(4H)-one]: the minimal inhibitory concentration (MIC) in experiment [1] turned out to be 0.25 µg/mL (≈ 0.524 µM); in experiment [2] it was 0.5 µg/mL (≈ 1.05 µM); in experiment [3], 0.031 µg/mL (≈ 0.0649 µM); in experiment [4], 0.25 µg/mL (≈ 0.524 µM); in experiment [5] it was 8 µg/mL (≈ 16.8 µM).

`COc1cccc(-c2cccc(CNCCc3cn(-c4ccc5c(n4)NC(=O)CO5)c(=O)o3)c2O)n1` [Example 85, 6-(5-{2-[2-hydroxy-3-(6-methoxy-pyridin-2-yl)-benzylamino]-ethyl}-2-oxo-oxazol-3-yl)-4H-pyrido[3,2-b][1,4]oxazin-3-one]: the MIC in experiment [1] was at most 0.016 µg/mL; in experiment [2], at most 0.016 µg/mL; in experiment [3], at most 0.016 µg/mL; in experiment [4] it was 0.125 µg/mL (≈ 0.255 µM); in experiment [5], 0.5 µg/mL (≈ 1.02 µM).

On to `COc1cc(OC)nc(-c2cccc(CNCC[C@@H]3CN(c4ccc5c(c4)NC(=O)CS5)C(=O)O3)c2)n1` [Example 27, 6-((R)-5-{2-[3-(4,6-dimethoxy-pyrimidin-2-yl)-benzylamino]-ethyl}-2-oxo-oxazolidin-3-yl)-4H-benzo[1,4]thiazin-3-one], for which the MIC in experiment [1] was 0.063 µg/mL (≈ 0.121 µM); in experiment [2], 0.031 µg/mL (≈ 0.0594 µM); in experiment [3] it was at most 0.016 µg/mL; in experiment [4], 0.5 µg/mL (≈ 0.959 µM); in experiment [5], 1 µg/mL (≈ 1.92 µM).

As for `N#Cc1cccc(-c2cccc(CNCC[C@H]3CN(c4ccc5c(n4)NC(=O)CO5)C(=O)O3)c2)c1` [Example 40, 3′-({2-[(S)-2-oxo-3-(3-oxo-3,4-dihydro-2H-pyrido[3,2-b][1,4]oxazin-6-yl)-oxazolidin-5-yl]-ethylamino}-methyl)-biphenyl-3-carbonitrile], the MIC in experiment [1] was 0.125 µg/mL (≈ 0.266 µM); in experiment [2], 0.125 µg/mL (≈ 0.266 µM); in experiment [3], at most 0.016 µg/mL; in experiment [4] it was 0.25 µg/mL (≈ 0.532 µM); in experiment [5], 2 µg/mL (≈ 4.26 µM).

Take `COc1ccc(C#N)c(-c2cccc(CNCCc3nn(-c4ccc5c(n4)NC(=O)CO5)c(=O)o3)c2)c1` [Example 52, 5-methoxy-3′-({2-[5-oxo-4-(3-oxo-3,4-dihydro-2H-pyrido[3,2-b][1,4]oxazin-6-yl)-4,5-dihydro-[1,3,4]oxadiazol-2-yl]-ethylamino}-methyl)-biphenyl-2-carbonitrile]: the minimum inhibitory concentration (MIC) stood at 0.5 µg/mL (≈ 1 µM) in experiment [1]; 1 µg/mL (≈ 2.01 µM) in experiment [2]; 0.031 µg/mL (≈ 0.0622 µM) in experiment [3]; 2 µg/mL (≈ 4.01 µM) in experiment [4]; 4 µg/mL (≈ 8.02 µM) in experiment [5].

As to `COc1ccc(C#N)c(-c2cccc(CNCCc3cn(-c4ccc5c(n4)NC(=O)CO5)c(=O)o3)c2)c1` [Example 37, 5-methoxy-3′-({2-[2-oxo-3-(3-oxo-3,4-dihydro-2H-pyrido[3,2-b][1,4]oxazin-6-yl)-2,3-dihydro-oxazol-5-yl]-ethylamino}-methyl)-biphenyl-2-carbonitrile], the MIC was 0.063 µg/mL (≈ 0.127 µM) in experiment [1]; 0.063 µg/mL (≈ 0.127 µM) in experiment [2]; at most 0.016 µg/mL in experiment [3]; 0.25 µg/mL (≈ 0.503 µM) in experiment [4]; 1 µg/mL (≈ 2.01 µM) in experiment [5].
